Data on one compound can be found in ChEMBL document CHEMBL1158030, “Endophyte fungal isolates from Podophyllum peltatum produce podophyllotoxin” (J Nat Prod, 2006).

≈ marks a conversion by molar mass, not a printed value.

The nature of this data set: Toxicity in brine shrimp after 24 hrs. The class given is organism-based. The note with it: artemia, in vivo; read-out: LD50.

Regarding `COc1cc([C@@H]2c3cc4c(cc3[C@H](O)[C@H]3COC(=O)[C@H]23)OCO4)cc(OC)c1OC` [PODOFILOX], the LC50 at 24 h was determined as 2 µg/mL (≈ 4.83 µM).
